The record followed here is ChEMBL document CHEMBL1148538, “Scaffold oriented synthesis. Part 1: Design, preparation, and biological evaluation of thienopyrazoles as kinase inhibitors” (Bioorg Med Chem Lett, 2006).

The structures appear in SMILES notation.

For test [1], the target named is MAP kinase-activated protein kinase 2 (Homo sapiens, UniProt P49137). Description: Inhibitory activity against MK2.
For test [2], the target named is Vascular endothelial growth factor receptor 2 (Homo sapiens, UniProt P35968). Description: Inhibitory activity against KDR.
Vascular endothelial growth factor receptor 2, sequence (P35968 whole entry): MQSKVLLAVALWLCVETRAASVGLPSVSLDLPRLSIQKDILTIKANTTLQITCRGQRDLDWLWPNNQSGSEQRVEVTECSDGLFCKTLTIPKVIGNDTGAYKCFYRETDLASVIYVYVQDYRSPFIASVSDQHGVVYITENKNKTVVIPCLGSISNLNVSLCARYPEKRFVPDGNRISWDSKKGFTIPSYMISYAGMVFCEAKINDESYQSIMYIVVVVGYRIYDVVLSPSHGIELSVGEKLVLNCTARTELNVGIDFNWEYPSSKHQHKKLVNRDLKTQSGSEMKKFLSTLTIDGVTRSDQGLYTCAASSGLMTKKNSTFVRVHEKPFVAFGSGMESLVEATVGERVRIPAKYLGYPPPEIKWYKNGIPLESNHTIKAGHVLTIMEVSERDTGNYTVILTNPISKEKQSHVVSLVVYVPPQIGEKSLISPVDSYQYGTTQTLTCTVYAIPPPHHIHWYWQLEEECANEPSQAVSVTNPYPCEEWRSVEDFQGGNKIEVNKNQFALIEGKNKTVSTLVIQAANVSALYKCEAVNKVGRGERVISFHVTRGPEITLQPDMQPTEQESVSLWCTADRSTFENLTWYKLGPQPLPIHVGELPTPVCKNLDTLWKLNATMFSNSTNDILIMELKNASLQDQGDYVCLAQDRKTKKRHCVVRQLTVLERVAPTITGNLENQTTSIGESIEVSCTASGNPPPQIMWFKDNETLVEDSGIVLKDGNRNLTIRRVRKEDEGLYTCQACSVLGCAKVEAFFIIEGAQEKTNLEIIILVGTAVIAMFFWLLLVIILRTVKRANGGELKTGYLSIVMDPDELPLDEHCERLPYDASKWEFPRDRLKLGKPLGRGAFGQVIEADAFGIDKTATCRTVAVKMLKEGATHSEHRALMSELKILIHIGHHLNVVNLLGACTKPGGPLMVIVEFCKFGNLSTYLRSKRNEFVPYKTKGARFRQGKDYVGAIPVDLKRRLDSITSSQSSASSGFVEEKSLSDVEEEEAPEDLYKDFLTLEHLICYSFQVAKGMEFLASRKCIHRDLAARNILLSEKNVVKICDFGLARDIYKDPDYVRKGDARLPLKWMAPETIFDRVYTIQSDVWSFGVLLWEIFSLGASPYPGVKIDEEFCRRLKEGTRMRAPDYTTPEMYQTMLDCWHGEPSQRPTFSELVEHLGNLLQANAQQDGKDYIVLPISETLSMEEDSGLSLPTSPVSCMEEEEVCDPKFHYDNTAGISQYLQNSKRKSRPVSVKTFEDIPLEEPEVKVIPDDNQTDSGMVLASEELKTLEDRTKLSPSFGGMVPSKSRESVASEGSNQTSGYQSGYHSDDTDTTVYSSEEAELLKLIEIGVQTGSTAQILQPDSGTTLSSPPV
Test [3] deals with RAC-alpha serine/threonine-protein kinase (Homo sapiens, UniProt P31749). Description: Inhibitory activity against Akt1.
RAC-alpha serine/threonine-protein kinase, sequence (P31749 whole entry): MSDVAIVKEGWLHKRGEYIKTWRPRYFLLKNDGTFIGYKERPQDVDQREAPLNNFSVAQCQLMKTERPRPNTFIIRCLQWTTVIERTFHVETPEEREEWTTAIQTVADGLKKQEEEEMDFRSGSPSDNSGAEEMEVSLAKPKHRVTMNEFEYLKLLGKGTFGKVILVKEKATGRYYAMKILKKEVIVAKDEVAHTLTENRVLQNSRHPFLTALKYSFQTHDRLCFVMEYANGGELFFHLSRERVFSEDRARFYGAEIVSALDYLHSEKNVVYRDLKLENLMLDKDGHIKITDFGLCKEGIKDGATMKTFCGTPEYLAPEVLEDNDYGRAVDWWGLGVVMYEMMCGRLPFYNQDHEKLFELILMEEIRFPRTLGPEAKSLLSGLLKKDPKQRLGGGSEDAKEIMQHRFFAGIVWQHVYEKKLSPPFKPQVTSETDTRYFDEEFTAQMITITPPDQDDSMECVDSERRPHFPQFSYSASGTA
The target of the next test is Casein kinase II (Homo sapiens, UniProt P19784+P67870+P68400). Put plainly: Inhibitory activity against CK2. Format: protein-complex assay.
Casein kinase II, sequence (P67870 whole entry): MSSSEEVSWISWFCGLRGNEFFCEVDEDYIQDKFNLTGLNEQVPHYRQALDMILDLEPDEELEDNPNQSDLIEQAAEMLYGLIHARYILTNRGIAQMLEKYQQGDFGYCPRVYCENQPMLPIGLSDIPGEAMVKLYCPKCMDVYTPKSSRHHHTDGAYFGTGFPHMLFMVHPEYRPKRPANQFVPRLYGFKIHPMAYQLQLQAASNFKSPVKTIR
Casein kinase II, sequence (P68400 whole entry): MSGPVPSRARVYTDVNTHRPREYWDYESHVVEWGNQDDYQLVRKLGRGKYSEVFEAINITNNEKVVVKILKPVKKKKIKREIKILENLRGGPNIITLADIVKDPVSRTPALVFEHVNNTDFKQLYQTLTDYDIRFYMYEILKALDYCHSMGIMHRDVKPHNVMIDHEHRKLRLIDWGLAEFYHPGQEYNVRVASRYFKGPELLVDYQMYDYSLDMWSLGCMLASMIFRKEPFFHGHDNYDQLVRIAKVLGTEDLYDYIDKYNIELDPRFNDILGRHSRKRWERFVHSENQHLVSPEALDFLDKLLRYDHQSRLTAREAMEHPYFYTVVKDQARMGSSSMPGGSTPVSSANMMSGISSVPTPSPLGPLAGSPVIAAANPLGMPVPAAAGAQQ
Casein kinase II, sequence (P19784 whole entry): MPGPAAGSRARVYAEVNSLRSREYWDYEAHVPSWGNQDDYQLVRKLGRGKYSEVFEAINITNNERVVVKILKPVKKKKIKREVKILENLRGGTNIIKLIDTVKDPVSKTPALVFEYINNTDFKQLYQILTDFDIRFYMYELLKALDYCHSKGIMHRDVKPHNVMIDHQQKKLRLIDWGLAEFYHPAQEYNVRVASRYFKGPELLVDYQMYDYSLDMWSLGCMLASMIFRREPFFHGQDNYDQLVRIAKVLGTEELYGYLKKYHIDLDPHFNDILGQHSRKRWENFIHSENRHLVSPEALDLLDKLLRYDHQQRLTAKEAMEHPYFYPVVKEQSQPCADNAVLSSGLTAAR
For test [4], the target named is Serine/threonine-protein kinase PAK 4 (Homo sapiens, UniProt O96013). Put plainly: Inhibitory activity against Pak4.
Serine/threonine-protein kinase PAK 4, sequence (O96013 whole entry): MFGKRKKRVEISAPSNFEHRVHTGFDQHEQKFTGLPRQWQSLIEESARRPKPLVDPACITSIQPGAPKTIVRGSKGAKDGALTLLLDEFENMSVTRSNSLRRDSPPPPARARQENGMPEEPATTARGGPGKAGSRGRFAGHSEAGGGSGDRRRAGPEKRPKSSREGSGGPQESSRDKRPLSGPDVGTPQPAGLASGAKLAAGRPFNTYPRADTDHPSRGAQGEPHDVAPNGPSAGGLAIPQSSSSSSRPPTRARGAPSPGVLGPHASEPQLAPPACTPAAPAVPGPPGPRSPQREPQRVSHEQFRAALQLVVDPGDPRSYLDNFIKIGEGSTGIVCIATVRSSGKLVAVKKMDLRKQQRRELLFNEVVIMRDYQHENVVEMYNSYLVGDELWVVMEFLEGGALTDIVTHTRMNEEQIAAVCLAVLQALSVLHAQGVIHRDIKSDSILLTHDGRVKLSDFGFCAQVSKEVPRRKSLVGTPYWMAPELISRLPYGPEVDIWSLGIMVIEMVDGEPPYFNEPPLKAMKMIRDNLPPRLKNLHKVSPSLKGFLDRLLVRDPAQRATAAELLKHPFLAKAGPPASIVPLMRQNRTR
Test [5] concerns the target Serine/threonine-protein kinase PLK1 (Homo sapiens, UniProt P53350). Put plainly: Inhibitory activity against Plk1.
The target of test [6] is Mitogen-activated protein kinase kinase kinase 8 (Homo sapiens, UniProt P41279). Description: Inhibitory activity against COT.
Mitogen-activated protein kinase kinase kinase 8, sequence (P41279 whole entry): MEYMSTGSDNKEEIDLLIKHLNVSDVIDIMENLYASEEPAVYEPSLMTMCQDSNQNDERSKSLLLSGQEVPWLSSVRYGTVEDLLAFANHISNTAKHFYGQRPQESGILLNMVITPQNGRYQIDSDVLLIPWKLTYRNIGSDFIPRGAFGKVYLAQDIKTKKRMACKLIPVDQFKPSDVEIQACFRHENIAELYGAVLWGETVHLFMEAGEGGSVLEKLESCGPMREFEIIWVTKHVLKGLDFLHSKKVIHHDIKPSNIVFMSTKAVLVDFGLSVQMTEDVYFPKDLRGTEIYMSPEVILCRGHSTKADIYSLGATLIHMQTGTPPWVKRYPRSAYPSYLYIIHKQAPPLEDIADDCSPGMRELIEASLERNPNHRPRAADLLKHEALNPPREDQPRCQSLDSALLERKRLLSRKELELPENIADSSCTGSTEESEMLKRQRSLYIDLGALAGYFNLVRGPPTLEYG
Test [7] has as its target Cyclin-dependent kinase 2/cyclin A (Homo sapiens, UniProt P24941). Description: Inhibitory activity against CDK2/Cyclin A. In kind it is protein-complex assay.
In test [8] the target is Mitogen-activated protein kinase 14 (Homo sapiens, UniProt Q16539). Put plainly: Inhibitory activity against p38alpha.
Mitogen-activated protein kinase 14, sequence (Q16539 whole entry): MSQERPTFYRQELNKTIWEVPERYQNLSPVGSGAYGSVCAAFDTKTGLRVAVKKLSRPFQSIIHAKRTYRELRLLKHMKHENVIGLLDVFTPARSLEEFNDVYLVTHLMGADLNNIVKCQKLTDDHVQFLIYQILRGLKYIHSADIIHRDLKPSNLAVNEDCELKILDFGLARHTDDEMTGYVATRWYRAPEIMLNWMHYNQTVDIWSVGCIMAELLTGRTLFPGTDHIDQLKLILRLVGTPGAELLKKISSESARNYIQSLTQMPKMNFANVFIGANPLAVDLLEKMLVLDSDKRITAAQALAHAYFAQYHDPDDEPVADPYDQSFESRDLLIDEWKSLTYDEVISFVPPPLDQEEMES

Serine/threonine-protein kinase PLK1, sequence (P53350 whole entry): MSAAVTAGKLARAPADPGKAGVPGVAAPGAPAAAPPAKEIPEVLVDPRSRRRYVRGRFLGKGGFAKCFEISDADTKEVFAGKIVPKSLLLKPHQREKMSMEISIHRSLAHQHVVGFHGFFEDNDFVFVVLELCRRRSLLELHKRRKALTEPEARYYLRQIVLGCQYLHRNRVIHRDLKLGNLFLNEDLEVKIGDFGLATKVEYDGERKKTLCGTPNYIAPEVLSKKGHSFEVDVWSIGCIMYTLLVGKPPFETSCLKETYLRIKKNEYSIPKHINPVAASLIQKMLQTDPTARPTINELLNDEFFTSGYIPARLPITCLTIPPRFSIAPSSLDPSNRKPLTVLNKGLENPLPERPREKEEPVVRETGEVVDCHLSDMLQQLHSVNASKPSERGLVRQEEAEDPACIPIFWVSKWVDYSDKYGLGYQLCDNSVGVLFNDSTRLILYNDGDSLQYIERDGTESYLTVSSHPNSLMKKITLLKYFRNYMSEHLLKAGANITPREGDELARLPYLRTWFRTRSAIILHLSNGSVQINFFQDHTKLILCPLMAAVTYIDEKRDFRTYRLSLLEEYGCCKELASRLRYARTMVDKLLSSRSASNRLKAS

With `CCCCNC(=O)c1cc2c(C)n[nH]c2s1`, the IC50 in test [1] was above 20 µM; in [2] it was 16 µM; in [3], above 20 µM; at Casein kinase II, 21 µM; in [4] it was above 20 µM; in [5], above 20 µM. This compound came in with a half-maximal inhibitory concentration (IC50) in [6] above 20 µM.

Regarding `Cc1[nH]nc2sc(C(N)=O)c(NC(=O)Nc3ccccc3)c12`, the 50% inhibitory concentration (IC50) in [2] was 20 µM; in test [3] it was 9 µM; on Casein kinase II, 11 µM; in test [4] it was 13 µM; in [5], above 20 µM.

As to `O=C(NCCc1ccccc1)c1cc2c(-c3ccccc3)n[nH]c2s1`, the IC50 in test [1] is above 20 µM; in test [7], above 20 µM; in test [2], 2 µM; in [8] it was above 20 µM; in test [3] it was above 20 µM; against Casein kinase II, above 20 µM. The results for the IC50 in test [4], in [5] and in [6] were above 20 µM, 17 µM and above 20 µM, respectively.

As for `Cc1n[nH]c2sc(C(N)=O)c(NC(=O)c3cccc(Cl)c3)c12`, the IC50 (in test [2]; in test [3]; against Casein kinase II; in test [4]; in test [5]) was above 100 µM in each case.

As for `Cc1[nH]nc2sc(C(N)=O)c(NC(=O)c3ccc(Cl)cc3)c12`, the IC50 (in test [2]; in test [3]; at Casein kinase II; in test [4]; in [5]) was above 100 µM each time.

Take `Cc1[nH]nc2sc(C(N)=O)c(NC(=O)c3ccccc3Cl)c12`: the IC50 was 8 µM in test [2]; above 100 µM in test [3]; 9 µM on Casein kinase II; above 100 µM in [4]; 23 µM in test [5].

On to `COC(=O)c1cc2c(C)n[nH]c2s1`, for which the IC50 in [2] was 23 µM; in test [3] it was above 100 µM; on Casein kinase II, 38 µM; in test [4] it was above 100 µM; in test [5], above 100 µM.

In the case of `CCCCN(C)C(=O)c1cc2c(C)n[nH]c2s1`, the IC50 in test [1] was above 20 µM; in [2] it was above 20 µM; in test [3] it was above 20 µM; against Casein kinase II, 24 µM; in [4] it was above 20 µM; in test [5] it was above 20 µM. In addition, in [6], the IC50 was above 20 µM.

On to `Cc1n[nH]c2sc(C(=O)NC3CCCCC3)cc12`, for which the concentration for half-maximal inhibition (IC50) (in test [1]; in test [2]; in test [3]; against Casein kinase II; in test [4]; in [5]) was above 20 µM each time. The compound also gave an IC50 in test [6] above 20 µM.

Turning to `Cc1n[nH]c2sc(C(=O)NCc3ccccc3)cc12`, the IC50 in test [1] is above 20 µM; in test [2] it was 12 µM; in test [3] it was above 20 µM; against Casein kinase II, 19 µM; in [4] it was above 20 µM; in test [5], 16 µM. The compound further had a half-maximal inhibitory concentration (IC50) in test [6] above 20 µM.

Regarding `CC(=O)Nc1c(C(N)=O)sc2n[nH]c(C)c12`, the IC50 is 19 µM in test [2]; above 20 µM in test [3]; 9 µM at Casein kinase II; above 20 µM in test [4]; above 20 µM in test [5].

Turning to `CN1CCN(C(=O)c2cc3c(-c4ccccc4)n[nH]c3s2)CC1`, the concentration for half-maximal inhibition (IC50) in test [1] is above 20 µM; in test [7] it was above 20 µM; in test [2], 4 µM; in test [8], above 20 µM; in test [3], above 20 µM; against Casein kinase II it was above 20 µM. Also, the IC50 in test [4], in test [5] and in [6] was above 20 µM throughout.

With `COC(=O)C(=O)Nc1c(C(N)=O)sc2[nH]nc(C)c12`, the IC50 in test [2] is 17 µM; in test [3], above 100 µM; at Casein kinase II, 3 µM; in [4], above 100 µM; in test [5] it was 8 µM.

Consider `Cc1n[nH]c2sc(C(N)=O)cc12`, for which the IC50 was above 20 µM in test [1]; 17 µM in [2]; above 20 µM in [3]; 4 µM at Casein kinase II; above 20 µM in [4]; above 20 µM in test [5]. Further, in test [6], the IC50 is above 20 µM.

Consider `O=C(NC1CCCCC1)c1cc2c(-c3ccccc3)n[nH]c2s1`, for which the IC50 in test [1] was above 20 µM; in [7], 11 µM; in test [2], 0.49 µM; in test [8] it was above 20 µM; in [3], above 20 µM; on Casein kinase II, above 20 µM. The half-inhibitory concentration (IC50) in test [4] is above 20 µM; in test [5], 12 µM; in test [6], above 20 µM.

Take `Cc1n[nH]c2sc(C(N)=O)c(NC(=O)COc3ccccc3)c12`: the IC50 was 11 µM in test [2]; above 100 µM in test [3]; 6 µM against Casein kinase II; above 100 µM in test [4]; above 100 µM in test [5].

Turning to `CCCCN(C)C(=O)c1cc2c(-c3ccccc3)n[nH]c2s1`, the IC50 in test [1] is above 20 µM; in [7], above 20 µM; in test [2] it was 0.35 µM; in [8], above 20 µM; in test [3], above 20 µM; at Casein kinase II it was 5 µM. In addition, the IC50 in test [4], in test [5] and in test [6] was above 20 µM each time.

For `COC(=O)c1cc2c(CN3CCCCC3)n[nH]c2s1`, the IC50 (in test [2]; in [3]; on Casein kinase II; in test [4]; in test [5]) was above 100 µM in each case.

Regarding `Cc1n[nH]c2sc(C(N)=O)c(NC(=O)c3cccs3)c12`, the IC50 in test [2] was 6 µM; in test [3] it was 17 µM; on Casein kinase II, above 100 µM; in test [4] it was above 100 µM; in test [5], above 100 µM.

As for `O=C(NCc1ccccc1)c1cc2c(-c3ccccc3)n[nH]c2s1`, the IC50 was 17 µM in test [1]; 0.5 µM in [2]; 15 µM in test [3]; 2 µM on Casein kinase II; above 20 µM in test [4]; above 20 µM in test [6].

`COC(=O)c1cc2c(Nc3ccccc3)[nH]nc2s1`: the IC50 in [2] was above 100 µM; in test [3], 16 µM; on Casein kinase II, 5 µM; in [4] it was 37 µM; in test [5], 21 µM.

Regarding `COc1ccc(CNC(=O)c2cc3c(-c4ccccc4)n[nH]c3s2)cc1`, the IC50 in test [1] is 16 µM; in test [7], above 20 µM; in [2] it was 0.51 µM; in test [8] it was above 20 µM; in [3], above 20 µM; against Casein kinase II, above 20 µM. Besides, the IC50 in test [4], in test [5] and in [6] was above 20 µM in each case.

For orientation: IC50 means the concentration at which inhibition is half-maximal. Read a low IC50 as greater potency.
